Laboratory results taken from patent US20070135383A1, “Phospholipase inhibitors, including multi-valent phospholipase inhibitors, and use thereof, including as lumen-localized phospholipase inhibitors” (priority 2005, published 2007).
pIC50: −log10 of the molar value.

Experiments:
[1] = tested on: wild-type C57BL/6 mice on high fat/high sucrose diet; test: In-vivo evaluation on high fat/high sucrose diabetogenic diet, 10 weeks (Example 10); set-up: species or system mouse; settings: for fasting glucose levels: low dose 25 mg/kg/day
Method: ILY-4001 (FIG. 7) was evaluated as a PLA2 IB inhibitor in a set of experiments using wild-type mice and genetically deficient PLA2 (−/−) mice (also referred to herein as PLA2 knock-out (KO) mice). In these experiments, wild-type and PLA2 (−/−) mice were maintained on a high fat/high sucrose diet, details of which are described below.
Briefly, four groups were set up, each having six mice. Three of the groups included six wild-type PLA2 (+/+) mice in each group (eighteen mice total), and one of the groups included six genetically deficient PLA2 (−/−) mice. One of the wild-type groups was used as a wild-type control group, and was not treated with ILY-4001. The other two wild-type groups were treated with ILY-4001—one group at a lower dose (indicated as “L” in Table 1) of 25 mg/kg/day, and the other at a higher dose (indicated as “H” in Table 1) of 90 mg/kg/day. The group comprising the PLA2 (−/−) mice was used as a positive control group.
The experimental protocol used in this study was as follows. The four groups of mice, including wild type and isogenic PLA2 (−/−) C57BL/J mice were acclimated for three days on a low fat/low carbohydrate diet. After the three day acclimation phase, the animals were fasted overnight and serum samples taken to establish baseline plasma cholesterol, triglyceride, and glucose levels, along with baseline body weight. The mice in each of the treatment groups were then fed a high fat/high sucrose diabetogenic diet (Research Diets D12331). 1000 g of the high fat/high sucrose D12331 diet was composed of casein (228 g), DL-methionine (2 g), maltodextrin 10 (170 g), sucrose (175 g), soybean oil (25 g), hydrogenated coconut oil (333.5 g), mineral mix S10001 (40 g), sodium bicarbonate (10.5 g), potassium citrate (4 g), vitamin mix V10001 (10 g), and choline bitartrate (2 g). This diet was supplemented with ILY-4001 treatments such that the average daily dose of the compound ingested by a 25 g mouse was: 0 mg/kg/day (wild-type control group and PLA2 (−/−) control group); 25 mg/kg/day (low-dose wild-type treatment group), or 90 mg/kg/day (high-dose wild-type treatment group). The animals were maintained on the high fat/high sucrose diet, with the designated ILY-4001 supplementation, for a period of ten weeks.
Body weight measurements were taken for all animals in all treatment and control groups at the beginning of the treatment period and at 4 weeks and 10 weeks after initiation of the study. (See Example 10A). Blood draws were also taken at the beginning of the treatment period (baseline) and at 4 weeks and 10 weeks after initiation of the study, in order to determine fasting glucose (See Example 10B). Cholesterol and triglyceride levels were determined from blood draws taken at the beginning of the treatment (baseline) and at ten weeks. (See […]).

Porcine PLA2 IB = biological target: T1, Porcine PLA2 IB (Sus scrofa, UniProt P00592); test: Continuous fluorimetric PLA2 assay, PPyrPG vesicles (Example 1B-1); assay type: biochemical; settings: restated in Example 10, refers to Example 1B-1; read-out: IC-50 value
T1 construct: purchased
Text: A continuous fluorimetric assay for PLA2 activity described in the literature was used to determine IC (Leslie, C C and Gelb, M H (2004) Methods in Molecular Biology “Assaying phospholipase A2 activity”, 284: 229-242, Singer, A G, et al. (2002) Journal of Biological Chemistry “Interfacial kinetic and binding properties of the complete set of human and mouse groups I, II, V, X, and XII secreted phospholipases A2”, 277: 48535-48549, Bezzine, S, et al. (2000) Journal of Biological Chemistry “Exogenously added human group X secreted phospholipase A(2) but not the group IB, IIA, and V enzymes efficiently release arachidonic acid from adherent mammalian cells”, 275: 3179-3191) and references therein.
Generally, this assay used a phosphatidylglycerol (or phosphatidylmethanol) substrate with a pyrene fluorophore on the terminal end of the sn-2 fatty acyl chain. […] The effect of a given inhibitor and inhibitor concentration on any given phospholipase can be determined. […]
In this example, the procedure was performed as follows: • 1. […] The fluorescence was read using an excitation of 342 nm and an emission of 395 nm.
In this example, the IC50 was calculated using the BioDataFit 1.02 (Four Parameter Model) software package. […]

[2] = low and high doses (25 and 90 mg/kg/day), 10 weeks

T1 sequence (P00592 23-146): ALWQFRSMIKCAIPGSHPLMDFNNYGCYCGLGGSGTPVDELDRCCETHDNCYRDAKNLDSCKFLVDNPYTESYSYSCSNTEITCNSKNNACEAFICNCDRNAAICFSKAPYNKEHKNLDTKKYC

SMILES: Cc1c(C(=O)C(N)=O)c2c(OCC(=O)O)cccc2n1Cc1ccccc1-c1ccccc1 [ILY-4001, 2-(3-(2-amino-2-oxoacetyl)-1-(biphenyl-2-ylmethyl)-2-methyl-1H-indol-4-yloxy)acetic acid]
- body weight gain ([1]; 25 mg/kg/d and 90 mg/kg/d in diet, week 4 and week 10, vs wild-type control): significantly reduced body weight gains
- plasma levels of cholesterol [1, 2]: substantially reduced
- plasma levels of triglycerides [1, 2]: substantially reduced
- fasting glucose levels ([1]; week four): moderately beneficial effect
- fasting glucose levels ([1]; week ten): beneficial effect was not observed
- pIC50 (Porcine PLA2 IB): ~7.21
